Assay: mn = molality of the nth substance listed, in mol/kg
Settings: for surface tension liquid-gas: Pendant drop shape; for electrical conductivity: 100 kPa, Liquid, Mettler Toledo inLab 710

CCCCCCCCCCCCCC[N+](C)(C)CCC[N+](C)(C)CCCCCCCCCCCCCC.[Br-].[Br-] + O
Settings	electrical conductivity, 298.15 K [S/m]	electrical conductivity, 303.15 K [S/m]	electrical conductivity, 308.15 K [S/m]	electrical conductivity, 313.15 K [S/m]	electrical conductivity, 318.15 K [S/m]	electrical conductivity, 323.15 K [S/m]	surface tension liquid-gas, 298.15 K [mN/m]
m1 = 1e-05	–	–	–	–	–	–	57.45
m1 = 2e-05	–	–	–	–	–	–	53.65
m1 = 3e-05	–	–	–	–	–	–	50.48
m1 = 4e-05	–	–	–	–	–	–	47.51
m1 = 5e-05	–	–	–	–	–	–	45.48
m1 = 6e-05	–	–	–	–	–	–	42.44
m1 = 7e-05	–	–	–	–	–	–	40.27
m1 = 8e-05	–	–	–	–	–	–	38.27
m1 = 9e-05	–	–	–	–	–	–	37
m1 = 9.3e-05	0.00212	–	0.0026	0.00309	0.00331	0.00348	–
m1 = 9.8e-05	0.00224	0.00251	0.00274	0.00324	0.00345	0.00363	–
m1 = 0.0001	–	–	–	–	–	–	35.52
m1 = 0.000104	0.00236	0.00267	0.00288	0.00343	0.00361	0.00382	–
m1 = 0.000111	0.0025	0.00283	0.00302	0.00364	0.00382	0.004	–
m1 = 0.000119	0.00264	0.003	0.00323	0.00382	0.00404	0.00422	–
m1 = 0.00012	–	–	–	–	–	–	34.27
m1 = 0.000125	0.00274	0.00311	0.00335	0.00391	0.0042	0.00441	–
m1 = 0.000132	0.00285	0.00324	0.0035	0.00407	0.00435	0.00462	–
m1 = 0.000139	0.00294	0.00337	0.00367	0.00423	0.00454	0.00486	–
m1 = 0.00014	–	–	–	–	–	–	34.18
m1 = 0.000147	0.00303	0.00351	0.00382	0.00441	0.00478	0.00512	–
m1 = 0.000156	0.00311	0.00364	0.00398	0.00463	0.00506	0.00542	–
m1 = 0.000164	0.00318	0.00373	0.00411	0.00479	0.00528	0.00565	–
m1 = 0.00017	–	–	–	–	–	–	34.06
m1 = 0.000172	0.00325	0.00381	0.00421	0.00497	0.0055	0.00593	–
m1 = 0.000182	0.00331	0.0039	0.00434	0.00513	0.00572	0.0062	–
m1 = 0.000192	0.00338	0.00399	0.00448	0.00532	0.00599	0.00651	–
m1 = 0.0002	0.00343	0.00405	0.00455	0.00542	0.00614	0.00669	33.81
m1 = 0.000208	0.00348	0.00412	0.00464	0.00552	0.00628	0.00688	–
m1 = 0.000217	0.00352	0.00418	0.00471	0.00564	0.00642	0.00704	–
m1 = 0.000227	0.00358	0.00426	0.00479	0.00574	0.00656	0.0072	–
m1 = 0.000238	0.00365	0.00434	0.00488	0.00582	0.0067	0.00737	–
m1 = 0.00025	0.00372	0.00443	0.00498	0.00594	0.00684	0.00754	–
m1 = 0.0003	–	–	–	–	–	–	33.92

CCCCCCCCCCCC[N+](C)(C)CCC[N+](C)(C)CCCCCCCCCCCC.[Br-].[Br-] + O
Settings	electrical conductivity, 298.15 K [S/m]	electrical conductivity, 303.15 K [S/m]	electrical conductivity, 308.15 K [S/m]	electrical conductivity, 313.15 K [S/m]	electrical conductivity, 318.15 K [S/m]	electrical conductivity, 323.15 K [S/m]	surface tension liquid-gas, 298.15 K [mN/m]
m1 = 0.0001	–	–	–	–	–	–	60.28
m1 = 0.0002	–	–	–	–	–	–	51.37
m1 = 0.0004	–	–	–	–	–	–	41.67
m1 = 0.00057	0.0117	0.0131	–	0.0152	0.0174	–	–
m1 = 0.00059	–	–	–	–	–	0.0191	–
m1 = 0.0006	–	–	–	–	–	–	36.01
m1 = 0.00061	0.0126	0.0139	–	0.0168	0.0186	–	–
m1 = 0.00063	–	–	–	–	–	0.0203	–
m1 = 0.00064	0.0132	0.0146	0.0159	0.0176	0.0199	–	–
m1 = 0.00067	0.0138	0.0152	0.0168	0.0186	0.0209	0.0218	–
m1 = 0.0007	0.0144	0.0159	0.0176	0.0197	0.0219	0.0229	33.17
m1 = 0.00074	0.0151	0.0168	0.0184	0.0207	0.0231	0.0241	–
m1 = 0.00077	0.0156	0.0172	0.0191	–	–	–	–
m1 = 0.00079	–	–	–	0.0217	0.0245	0.0256	–
m1 = 0.0008	0.0161	0.0178	0.0196	–	–	–	32.87
m1 = 0.00083	0.0165	0.0185	0.0203	0.0229	0.0253	0.0272	–
m1 = 0.00085	–	–	–	–	–	–	32.79
m1 = 0.00087	0.0168	0.0191	0.021	0.0237	0.0262	0.0282	–
m1 = 0.0009	–	–	–	–	–	–	32.84
m1 = 0.00091	0.0171	0.0195	0.0216	0.0245	0.0271	0.0293	–
m1 = 0.00095	0.0175	0.02	0.0223	0.0254	0.028	0.0305	–
m1 = 0.001	0.0179	0.0205	0.0228	0.0262	0.0289	0.0319	32.76
m1 = 0.00105	0.0183	0.0209	0.0234	0.027	0.0299	0.0334	–
m1 = 0.0011	–	–	–	–	–	–	32.75
m1 = 0.00111	0.0187	0.0212	0.024	0.0277	0.0308	0.0349	–
m1 = 0.00118	0.0191	0.0217	0.0244	0.0285	0.0318	0.036	–
m1 = 0.0012	–	–	–	–	–	–	32.81
m1 = 0.00125	0.0195	0.0221	0.025	0.0293	0.0327	0.0374	–
m1 = 0.00134	0.0199	0.0225	0.0257	0.0301	0.0335	0.0384	–
m1 = 0.00143	0.0203	0.0229	0.0264	0.031	0.0347	0.0394	–
m1 = 0.0015	–	–	–	–	–	–	32.59
m1 = 0.00154	0.0208	0.0235	0.027	0.0319	0.0357	0.0404	–
m1 = 0.0016	0.0211	0.0237	–	–	–	0.0413	–
m1 = 0.00163	–	–	0.0277	–	–	–	–
m1 = 0.00167	0.0214	0.0242	–	0.0327	0.037	0.042	–
m1 = 0.0017	–	–	0.028	–	–	–	–
m1 = 0.00174	0.0217	0.0247	–	0.0331	0.0376	0.0427	–
m1 = 0.00178	–	–	0.0285	–	–	–	–
m1 = 0.00182	0.0221	0.0251	–	0.0336	0.0383	0.0434	–
m1 = 0.00186	–	–	0.0291	–	–	–	–
m1 = 0.00191	0.0225	0.0256	–	0.0343	0.039	0.044	–
m1 = 0.002	0.023	0.0263	0.0301	0.0349	0.0399	0.0451	32.62

Source: the NIST ThermoML archive (doi:10.1021/je500513b)
